{
  "source": "patent US20130164228A1",
  "about": "“COMPOSITIONS COMPRISING GALLATES AND GALLAMIDES” (Colgate-Palmolive Company, priority 2011, published 2013)",
  "key": {"[1]": {"system": "LL-37 release from human gingival epithelial cells", "test": "Induction of anti-microbial peptides: LL-37 ELISA of supernatants", "format": "cell-based", "conditions": "for LL-37 (ng/ml) at 0.05% after 16 hrs: 0.05% test compound; for LL-37 (ng/ml) at 0.1% after 4 hrs: 0.1% test compound"}, "[2]": {"system": "β-defensin release from human gingival epithelial cells", "test": "Induction of anti-microbial peptides: β-defensin ELISA of supernatants", "format": "cell-based", "conditions": "0.1% test compound"}, "[3]": {"test": "Stability/discoloration of THDG and CHDG (neat, solution, saliva, dentifrice)", "format": "physicochemical", "conditions": "for stability in saliva (discoloration): 24 h at 37° C., subject specific, saliva pH 6.5-8; for discoloration in dentifrice, CDC base: in 2 weeks; for Stability of neat materials: neat powders; for discoloration of solutions in DMSO/water: pH 6.1-6.5, after 4M at RT; for discoloration in dentifrice, silica base: in 1 week"}, "[4]": {"test": "Vitro-Skin assay of potential uptake in skin", "format": "in vitro ADME", "description": "Using a commercial Vitro-Skin® assay to measure potential uptake in skin, we see uptake from all the formulations, but have better uptake in the Dical formulation than in the silica/SLS formulation (units in micrograms/cm^2): • 0.2% THDG/CDC: 4.9 • 0.2% THDG/HSLS: 0.6 • 0.2% CHDG/CDC: 4.4 • 0.2% CHDG/[…] • 0.3% Triclosan (positive control): 7.7"}, "[5]": {"system": "Actinomyces viscosus (ATCC # 43146)", "test": "Antibacterial growth inhibition (GI) assay", "format": "cell-based", "conditions": "100 ppm, OD610 at 2, 4, 6, 24 h", "protocol": "An overnight culture of Actinomyces viscosus (ATCC # 43146) is diluted to an OD610˜0.2 in sterile trypticase soy broth (TSB) Nine mls of diluted Actinomyces viscosus is added to triplicate 15 mls sterile culture tubes for each sample or control tested. One ml of each analog was added to the corresponding culture tube and briefly vortexed. Cultures are incubated at 37° C. in a shaking water bath. Supernatants are removed at 2, 4, 6, and 24 h and the OD610 read. Results from triplicate samples were averaged and growth is plotted as a function of time."}, "LL-37 production": {"system": "LL-37 production", "conditions": "natural products with only one 1,2,3-trihydroxybenzene ring; cited from earlier work"}},
  "data": [
    {"molecule": "O=C(O[C@@H]1CCCC[C@H]1OC(=O)c1cc(O)c(O)c(O)c1)c1cc(O)c(O)c(O)c1", "note": "(relative stereo) [THDG, trans-1,2 cyclohexanediol digallate]", "values": [
      {"measurement": "LL-37 (ng/ml) at 0.05% after 16 hrs", "setting": "[1]", "result": 5900, "unit": "ng/mL"},
      {"measurement": "LL-37 (ng/ml) at 0.1% after 4 hrs", "setting": "[1]", "result": 4100, "unit": "ng/mL"},
      {"measurement": "β-defensin (ng/ml) at 0.1% after 4 hrs", "setting": "[2]", "result": 280, "unit": "ng/mL"},
      {"measurement": "stability in saliva (discoloration)", "setting": "[3]", "result": "no discoloration to deep green discoloration"},
      {"measurement": "discoloration in dentifrice, CDC base", "setting": "[3]; CDC base", "result": "slight discoloration"},
      {"measurement": "Stability of neat materials", "setting": "[3]", "result": "short term shelf stability acceptable"},
      {"measurement": "discoloration of solutions in DMSO/water", "setting": "[3]", "result": "no discoloration"},
      {"measurement": "discoloration in dentifrice, silica base", "setting": "[3]; silica base", "result": "moderate discoloration"},
      {"measurement": "uptake in Vitro-Skin from CDC formulation", "setting": "[4]; 0.2 %", "result": 4.9, "unit": "micrograms/cm^2"},
      {"measurement": "uptake in Vitro-Skin from HSLS formulation", "setting": "[4]; 0.2 %", "result": 0.6, "unit": "micrograms/cm^2"}
    ]},
    {"molecule": "O=C(N[C@@H]1CCCC[C@H]1NC(=O)c1cc(O)c(O)c(O)c1)c1cc(O)c(O)c(O)c1", "note": "(relative stereo) [THDGA, trans-1,2-cyclohexane digallamide]", "values": [
      {"measurement": "LL-37 (ng/ml) at 0.05% after 16 hrs", "setting": "[1]", "result": 130, "unit": "ng/mL"},
      {"measurement": "LL-37 (ng/ml) at 0.1% after 4 hrs", "setting": "[1]", "result": 100, "unit": "ng/mL"},
      {"measurement": "β-defensin (ng/ml) at 0.1% after 4 hrs", "setting": "[2]", "result": 1.5, "unit": "ng/mL"}
    ]},
    {"molecule": "CCCCOC(=O)c1cc(O)c(O)c(O)c1", "note": "[BG]", "values": [
      {"measurement": "LL-37 (ng/ml) at 0.05% after 16 hrs", "setting": "[1]", "result": 50, "unit": "ng/mL"},
      {"measurement": "LL-37 (ng/ml) at 0.1% after 4 hrs", "setting": "[1]", "result": 100, "unit": "ng/mL"},
      {"measurement": "β-defensin (ng/ml) at 0.1% after 4 hrs", "setting": "[2]", "result": 0, "unit": "ng/mL"}
    ]},
    {"molecule": "O=C(O[C@H]1CCCC[C@H]1OC(=O)c1cc(O)c(O)c(O)c1)c1cc(O)c(O)c(O)c1", "note": "[CHDG, cis-1,2-cyclohexanediol digallate]", "values": [
      {"measurement": "LL-37 (ng/ml) at 0.05% after 16 hrs", "setting": "[1]", "result": 3700, "unit": "ng/mL"},
      {"measurement": "LL-37 (ng/ml) at 0.1% after 4 hrs", "setting": "[1]", "result": 5200, "unit": "ng/mL"},
      {"measurement": "β-defensin (ng/ml) at 0.1% after 4 hrs", "setting": "[2]", "result": 150, "unit": "ng/mL"},
      {"measurement": "stability in saliva (discoloration)", "setting": "[3]", "result": "no discoloration to deep green discoloration"},
      {"measurement": "discoloration in dentifrice, CDC base", "setting": "[3]; CDC base", "result": "slight discoloration"},
      {"measurement": "Stability of neat materials", "setting": "[3]", "result": "short term shelf stability acceptable"},
      {"measurement": "discoloration of solutions in DMSO/water", "setting": "[3]", "result": "no discoloration"},
      {"measurement": "discoloration in dentifrice, silica base", "setting": "[3]; silica base", "result": "moderate discoloration"}
    ]},
    {"molecule": "O=C(N[C@H]1CCCC[C@H]1NC(=O)c1cc(O)c(O)c(O)c1)c1cc(O)c(O)c(O)c1", "note": "[CHDGA, cis-1,2-cyclohexane digallamide]", "values": [
      {"measurement": "LL-37 (ng/ml) at 0.05% after 16 hrs", "setting": "[1]", "result": 120, "unit": "ng/mL"},
      {"measurement": "LL-37 (ng/ml) at 0.1% after 4 hrs", "setting": "[1]", "result": 100, "unit": "ng/mL"},
      {"measurement": "β-defensin (ng/ml) at 0.1% after 4 hrs", "setting": "[2]", "result": 0.7, "unit": "ng/mL"}
    ]},
    {"molecule": "O=C(O[C@H]1CCC[C@H]1OC(=O)c1cc(O)c(O)c(O)c1)c1cc(O)c(O)c(O)c1", "note": "[CPDG, cis-1,2-cyclopentanediol digallate]", "values": [
      {"measurement": "LL-37 (ng/ml) at 0.05% after 16 hrs", "setting": "[1]", "result": 160, "unit": "ng/mL"},
      {"measurement": "LL-37 (ng/ml) at 0.1% after 4 hrs", "setting": "[1]", "result": 120, "unit": "ng/mL"},
      {"measurement": "β-defensin (ng/ml) at 0.1% after 4 hrs", "setting": "[2]", "result": 0.5, "unit": "ng/mL"}
    ]},
    {"molecule": "O=C(O[C@@H]1Cc2c(O)cc(O)cc2O[C@@H]1c1cc(O)c(O)c(O)c1)c1cc(O)c(O)c(O)c1", "note": "[EGCG, epigallocatechin gallate, reference compound]", "values": [
      {"measurement": "antibacterial activity in bacterial culture", "setting": "[5]", "result": "modest antibacterial activity"},
      {"measurement": "LL-37 (ng/ml) at 0.05% after 16 hrs", "setting": "[1]; listed as EGCG (source Kenko)", "result": 15, "unit": "ng/mL"},
      {"measurement": "LL-37 (ng/ml) at 0.05% after 16 hrs", "setting": "[1]; listed as EGCG (source TeaVigo)", "result": 20, "unit": "ng/mL"},
      {"measurement": "LL-37 (ng/ml) at 0.1% after 4 hrs", "setting": "[1]", "result": 160, "unit": "ng/mL"},
      {"measurement": "β-defensin (ng/ml) at 0.1% after 4 hrs", "setting": "[2]", "result": 4.3, "unit": "ng/mL"},
      {"measurement": "time to discoloration in dentifrice, CDC base", "setting": "[3]; CDC base", "result": 2, "unit": "days"},
      {"measurement": "time to discoloration of solution in DMSO/water", "setting": "[3]; same conditions: DMSO/water, RT", "result": "< 1", "unit": "week"},
      {"measurement": "time to discoloration in dentifrice, silica base", "setting": "[3]; silica base", "result": 2, "unit": "days"}
    ]},
    {"molecule": "Oc1cc(Cl)ccc1Oc1ccc(Cl)cc1Cl", "note": "[Triclosan, triclosan, reference compound]", "values": [
      {"measurement": "uptake in Vitro-Skin, positive control", "setting": "[4]; 0.3% Triclosan", "result": 7.7, "unit": "micrograms/cm^2"}
    ]},
    {"molecule": "Oc1cc(O)c2c(c1)O[C@H](c1cc(O)c(O)c(O)c1)[C@H](O)C2", "note": "[epigallocatechin]", "values": [
      {"measurement": "potency in LL-37 production compared with EGCG", "setting": "LL-37 production", "result": "significantly less potent"}
    ]},
    {"molecule": "catechin gallate", "values": [
      {"measurement": "potency in LL-37 production compared with EGCG", "setting": "LL-37 production", "result": "significantly less potent"}
    ]}
  ]
}
